A melting point compilation (Tetko et al.; mined from patent text by program, amines drawn as free bases though some values may be those of a salt)

Structure (SMILES)	melting point [°C]
CCCCCCC(C(C)O)n1cnc(C(N)=O)c1N (stereo unspecified)	159 to 160
Cc1cc(Br)cnc1CCCCNc1ncc(Cc2ccc(Cl)cc2)c(=O)[nH]1	149 to 150
CCN1c2ccccc2NC(=S)c2cccnc21	194 to 196
Nc1cc(C(=O)c2ccc(C(=O)c3ccc(F)c(N)c3)cc2)ccc1F	220 to 221
Cc1cc2c(c(C)c1N)CCO2	85 to 86
Cc1cc(C(=O)Nc2ccc(OCC(C)(C)C)c(C#N)c2)nn1-c1ccc(F)cc1	146 to 147
CC(=O)N1CCC2(CC1)CC(=O)c1cc(S(C)(=O)=O)ccc1O2	105 to 110
O=[N+]([O-])c1ccc2c(c1)Sc1cc(OCCF)ccc1N2	189 to 191
Cc1cc(C)c(N=c2cc(-c3ccc(O)c(O)c3)n(C)c(=O)n2C)c(C)c1	222 to 225
COC(=O)C=Cc1cc(C)n(CCNC(C)=O)c1C	144 to 145
O=c1cc(-c2cncnc2)oc2c(O)c(O)ccc12	> 300
Clc1ncc(C2CCCCC2)c2ccccc12	53 to 55
CCc1nn(Cc2cc(O)n[nH]2)c(CC)c1Oc1cc(Cl)cc(Cl)c1	142 to 144
CCCCCCCCc1c(C)[nH]c(C)c(I)c1=O	224 to 226
CCCNC(=O)C(=O)CCC(=O)O	79 to 81
COc1ccc(C(c2ccc(OC)cc2)(c2ccc(OC)cc2)N2CCCCC2)cc1	73 to 75
Cc1ncnn1-c1cc(F)ccc1C#N	120 to 121
Fc1cccc(Cl)c1CNc1ncnc2nsnc12	224 to 226
CCOC(=O)c1c[nH]c(SC(F)(F)F)c1-c1ccc(Cl)cc1	162 to 164
Cc1cccc(P(c2cccs2)c2cccs2)c1-c1c(C)cccc1P(c1cccs1)c1cccs1	177 to 178
Cc1ccc(Oc2cccc(C3C4=C(CC(C)(C)CC4=O)NC4=C3C(=O)CC(C)(C)C4)c2)cc1	202 to 203
CC(=O)NC[C@H]1CN(c2ccc(N3CCC4(CC3)CSCO4)c(F)c2)C(=O)O1	114 to 116
COC(=O)c1cc(O)n(C(C)C)n1	162 to 163
NCC1Cc2cc(F)cc(-c3ccncc3)c2O1 (stereo unspecified)	170 to 171
CCCc1cc(CCC)n2nc(N3CCN(C(=O)OCC)CC3)nc2n1	130 to 132
O=C(c1nc(-c2ccc(F)cc2)c(-c2ccc(F)cc2)[nH]1)C(F)(F)F	214 to 216
COc1cc(C=CC(=O)OC2C(O)C3CC(OC(=O)c4cc(OC)c(OC)c(OC)c4)CC2[N+]3(C)[O-])cc(OC)c1OC (stereo unspecified)	118 to 121

Structure (SMILES)	melting point [°C]
CCCN(CCC)c1ccc(NC(=O)N(C[C@H]2CC[C@H](CN(C(=O)Nc3ccc(N(CCC)CCC)cc3)C3CCCCC3)CC2)C2CCCCC2)cc1	147 to 150
CC(C)c1nc2ccn(Cc3ccccc3)c(=O)c2n1Cc1cccc(-c2ccc(C(=N)N)cc2)c1	> 300
CCOC(=O)C1=Cc2cc(Cl)c(C)c(Cl)c2OC1C(F)(F)F (stereo unspecified)	117 to 120
CCOC(=O)C1=C(C)NC(C)=C(C(=O)OCC)C1c1cc(Cl)cc(Cl)c1	102 to 104
CCCN(CCC)C1Cc2cccc(C(N)=O)c2NC1=O (stereo unspecified)	214 to 217
N#CC1=C(C2CCNCC2)Nc2n[nH]cc2C1c1ccccc1Cl (stereo unspecified)	221
O=C(O)c1cnc(O)cc1Cl	299 to 300
Cn1ncnc1COc1nc2c(cc1C(C)(C)C)nnn2-c1ccccc1F	115 to 117
CCN1CN(C2CC(O)C(CO)O2)C(=O)NC1=O (stereo unspecified)	162
FC(F)(F)COC(c1ccc(Cl)c2nc3n(c12)CCCN3c1ccc(Cl)cc1Cl)C1CC1 (stereo unspecified)	143 to 145
O=C(O)/C=C/c1cc(OC2CCOCC2)nn1Cc1ccc(Cl)cc1Cl	191 to 192
O=C(Nc1ccc(Cc2nnn[nH]2)cc1)C(F)(F)C(F)(F)F	183 to 185
Cc1nnc2n1-c1ccc(Br)cc1C(c1ccccc1F)=NC2	213 to 214
CCOc1nn(C(=O)N(CCCF)S(=O)(=O)N=c2[nH]ccs2)c(=O)n1C	178
Nc1nc(-n2cc(C(=O)O)c(=O)c3cc(F)c(NCCCO)c(Cl)c32)c(F)cc1F	136 to 142
CC(CC#CC(C)(C)O)C1=CCC2C3=CC=C4CC(O)CCC4(C)C3CCC12C (stereo unspecified)	185 to 192
O=C(O)c1cn(C2CC2)c2c(Br)c(F)c(F)cc2c1=O	224 to 226
Cc1cc(C)c2nc(NCCCN3CCOCC3)n(Cc3nc(C)ccc3O)c2c1	228
COc1cc(Nc2c(C#N)cnc3cc(/C=C/CCN4CCOCC4)ccc23)cc(OC)c1OC	128 to 130
CCOC(=O)Cc1cnc(NC(C)C)nc1Cl	67 to 71
Cn1c(=O)cc(CCc2ccc(Cl)s2)c2cc(C(=O)c3ccc(Cl)cc3)ccc21	151
Cn1c(=O)c(-c2ccccc2Cl)cc2cnc(N[C@H]3CC[C@H](NS(C)(=O)=O)CC3)nc21	261
Cc1cc(C)c(N2CCCc3c2nn(C)c3NC(=O)OC(C)(C)C)c(Cl)c1	171 to 176
CC1(C)CC2(CC(C)(C)N1)NC(C)(CO)CO2 (stereo unspecified)	90 to 92
Cc1csc(=S)n1-c1ccc(F)cc1N	138
COc1cc(Cn2cc3c(CC(C)C)nn(C)c(=O)c3c2)cc(OC)c1OC	154 to 155
CCOC(=O)c1c(C)cc(NC=O)c(C(=O)O)c1C	146 to 148

Other lines, results leading:

melting point [°C]	Structure (SMILES)
182 to 184	CC(=O)NCc1ccc2[nH]cc(C=O)c2c1
83.5	COc1cc(CNC=O)ccc1O
189 to 191	CC(C(=O)O)c1ccc2c(c1)C(=O)Cc1cc(N)ccc1S2 (stereo unspecified)
56 to 59	CCCc1cc(COc2cc(C)nc(C)c2OC)ccc1-c1ccccc1S(=O)(=O)Nc1noc(C)c1C
239 to 240	CNC(=O)c1c(-c2ccccn2)c2ccccc2n(C)c1=O
125 to 127	CCOC(=O)CCCNC1=NS(=O)(=O)c2ccccc21
289 to 290	CC(C)(C)OC(=O)Nc1cc(C(=O)NN)ccn1
> 260	Cc1cccn2c3c(nc12)-c1ccccc1C(=O)C3=O
96 to 100	CC(=O)OC12Oc3cc(C(C)C)ccc3C1(OC(C)=O)C(=O)c1c(NS(C)(=O)=O)cccc12 (stereo unspecified)
110 to 112	CCOC(=O)c1ccc(NC=CS(=O)(=O)F)cc1
177 to 178	CC(Oc1ccc2c(c1)c(-c1cc3cccnc3[nH]1)cn2C)C(=O)O (stereo unspecified)
165 to 166	O=C(NCc1ccccc1)Nc1cc(N2CC(c3ccccc3)CC2=O)ccn1 (stereo unspecified)
115 to 116	Cc1sc(-c2ccco2)nc1COc1ccc(CCl)cc1
172 to 174	CN(C)CC(O)c1c(-c2ccc3ccccc3c2)[nH]c2ccccc12 (stereo unspecified)
261 to 262	O=C(O)c1cc2cc(OCCNC[C@H](O)COc3ccccc3)ccc2s1
193 to 194	Nc1ncnc2c1c(-c1ccc(Oc3ccccc3)cc1)cn2C1CC2CC(O)CC2C1 (stereo unspecified)
218 to 221	O=C(Nc1ccc2c(c1)CCC2=O)c1cc(Cl)ccc1Cl
259 to 260	c1cnc(NCc2ccc3c(c2)-c2[nH]nc(-c4ccsc4)c2C3)nc1
209 to 211	CC(C)Cn1c(CNC(=O)OC(C)(C)C)c(-c2ccccc2)c2cc(-c3nc(C#N)cs3)ccc2c1=O
114 to 116	O=c1[nH]c(Cc2ccccc2)no1
258	COC(=O)CCCc1nc2[nH]c3ccccc3c2c(=O)[nH]1
220 to 222	CN1C(=O)CCC2(C)c3ccc(NC(=O)c4ccccc4)cc3CCC12 (single isomer, unassigned; (+))
104 to 105	Cc1oc(-c2ccco2)nc1COc1ccc(COc2nn(Cc3ccccc3)cc2C=O)cn1
98 to 99	COC(=O)C(=O)c1sccc1COc1ccccc1

melting point [°C]	Structure (SMILES)
131 to 132	Cc1cc(Oc2ccc(C#CC(C)N(O)C(N)=O)o2)ccc1F (stereo unspecified)
258 to 259	Cc1[nH]c(C#N)c(C)c1-c1ccnc(Nc2cccc([N+](=O)[O-])c2)n1
167 to 169	CC(=O)OC12Oc3cc(C)ccc3C1(OC(C)=O)C(=O)c1ccccc12 (stereo unspecified)
119 to 125	CCOC(=O)NC(CCc1ccccc1)P(C)(=O)O (stereo unspecified)
77 to 78	Cc1ccc(C(=O)NCC(C)O)cc1C (stereo unspecified)
233 to 235	NS(=O)(=O)c1ccc(NC(=O)Nc2ccccc2)cc1
165 to 167	COc1ccc(Oc2ccc(/C=C/C(=O)O)cc2)cc1
166 to 167	CNC(=O)c1cccc(CNc2ccccc2C(=O)Nc2cccc(C(F)(F)F)c2)c1
207	O=C(Cc1ccc(F)cc1)Nc1cccc2nc(N[C@@H]3CCc4ccccc43)ccc12
46 to 47	NC(=O)CNC(=O)c1cccc(-c2cccc3cc(Cc4cc(F)cc(Cl)c4)sc23)c1F
106	COc1cccc(C(O)C2c3ccccc3Cc3ccccc32)c1 (stereo unspecified)
99	CC(C)(C)OC(=O)C[C@H](NC(=O)c1cccc(NC(=O)Cc2ccc(C(N)=S)cc2)c1)C(=O)N[C@@H](Cc1ccccc1)C(=O)OC(C)(C)C
222 to 223	N#Cc1ccc(C(=O)Nc2nc(-c3ccco3)c(C(=O)C3CCOCC3)s2)o1
174 to 175	Cc1ccccc1NC(=O)CN1C[C@@H](C)N(c2ncnc3sccc23)[C@@H](C)C1
201 to 205	O=c1cc(-c2nnn[nH]2)oc2cc(CCc3cccc(OCc4ccc5ccccc5n4)c3)ccc12
168	CN(C)N1C(=O)c2ccccc2NS1(=O)=O
95 to 97	O=c1c(I)coc2ccccc12
38 to 40	SCCC1c2ccccc2-c2ccccc21
165	COc1ccc(N2CCOCC2)c2sc(C(=O)NCC(=O)Cc3cccs3)nc12
87 to 88	CCOC(=O)c1ccc(NC(=O)OC(C)(C)C)nn1
179	COc1ccc(-c2nc(S(=O)(=O)c3cccs3)[nH]c2-c2ccc(OC)cc2)cc1
100 to 103	CN(C(=O)OCc1ccccc1)[C@@H](CC(N)=O)C(=O)N[C@@H](Cc1ccccc1)[C@H](O)C(=O)N1CCC[C@H]1C(=O)NC(C)(C)C
95 to 96	COC(=O)/C=C/c1ccc(C)cc1C#N
